Experiments:
CB2 receptor [1] = biological target: CB2 receptor (Homo sapiens, UniProt P34972); assay type: binding
CB2 receptor [2] = conditions: cited from earlier work
[3] = cited from earlier work
CB2 receptor [4] = conditions: cited from earlier work; remark: listed apart in the source

Sequence of CB2 receptor (Homo sapiens, UniProt P34972) (P34972 whole entry): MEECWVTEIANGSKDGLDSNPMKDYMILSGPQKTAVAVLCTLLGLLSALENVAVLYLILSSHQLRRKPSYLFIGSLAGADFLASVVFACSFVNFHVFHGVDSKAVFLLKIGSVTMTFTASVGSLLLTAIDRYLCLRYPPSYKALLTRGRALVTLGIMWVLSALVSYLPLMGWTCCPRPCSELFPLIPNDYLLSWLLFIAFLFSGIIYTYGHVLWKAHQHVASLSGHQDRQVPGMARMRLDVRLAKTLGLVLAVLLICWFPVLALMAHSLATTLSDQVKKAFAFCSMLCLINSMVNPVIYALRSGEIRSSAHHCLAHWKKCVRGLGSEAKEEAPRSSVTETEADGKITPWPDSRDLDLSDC

SMILES	CB1/CB2 (ratio of Ki) (CB2 receptor [1])	selectivity for the CB2 receptor (CB2 receptor [2]) [fold]	Ki (CB2 receptor [2]; read-out: Ki CB2) [nM]	activity in the mouse model of cannabinoid activity [3]	agonism at the CB2 receptor (CB2 receptor [4])
CCCCCCC(C)(C)c1ccc([C@H]2CCC[C@@H](O)C2)c(OC)c1 (relative stereo) [JWH-441, (1R*,3S*)3-[2-Methoxy-4-(1,1-dimethylheptyl)phenyl]cyclohexanol]	>12	–	–	–	–
CCCCCCC(C)(C)c1cc(OC)c2c(c1)OC(C)(C)C1CC=C(C)CC21 (stereo not drawn) [1-methoxy-3-(dimethylheptyl)-•^8-THC]	–	12	57	–	–
CCCC(C)(C)c1ccc2c(c1)OC(C)(C)[C@@H]1CC=C(C)C[C@@H]21 [JWH-133]	–	200	–	inactive	full agonist
